In patent US20210009542A1 (Calico Life Sciences LLC, priority 2018, published 2021):
Read-outs that look alike come from different tables or passages of the source.

Legend:
[1] = biological target: T1, His tagged PTPN2 (TC45) protein (Homo sapiens, UniProt P17706); assay: Mobility shift assay (MSA) for potency of PTPN2 inhibitors; format: biochemical; settings: read-out: PTPN2 MSA IC50
T1 construct: made in house
T1 sequence (P17706 with tags, fused parts or gaps isoform P17706-2): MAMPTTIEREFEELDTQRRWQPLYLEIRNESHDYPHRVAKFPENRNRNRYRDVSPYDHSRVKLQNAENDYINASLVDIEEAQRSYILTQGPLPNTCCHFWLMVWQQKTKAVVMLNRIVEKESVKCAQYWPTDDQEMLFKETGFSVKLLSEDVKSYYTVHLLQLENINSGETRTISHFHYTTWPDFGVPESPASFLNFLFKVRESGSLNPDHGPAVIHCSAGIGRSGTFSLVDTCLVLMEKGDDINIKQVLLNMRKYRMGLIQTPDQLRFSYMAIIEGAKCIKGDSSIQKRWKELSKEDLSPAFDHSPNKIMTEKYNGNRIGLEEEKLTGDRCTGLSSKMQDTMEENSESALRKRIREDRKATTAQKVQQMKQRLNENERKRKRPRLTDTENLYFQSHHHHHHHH
Procedure, shortened: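 His-tagged PTPN2 TC45 (0.5 nM) was preincubated with compound (12-point, 1:3) for 10 min at room temperature in 50 mM HEPES pH 7.5, 1 mM EGTA, 10 mM EDTA, 0.01% Tween 20, 2 mM DTT. OG488-labelled phospho-insulin-receptor peptide ([…]) was then added for 10 min. After quenching, dephosphorylation was measured by microfluidic mobility shift and IC50 derived from % inhibition.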

[2] = biological target: T2, His tagged full-length PTP1B protein (Homo sapiens, UniProt P18031); assay: Mobility shift assay (MSA) for potency of PTP1B inhibitors; format: biochemical
T2 construct: made in house
T2 sequence (P18031 with tags, fused parts or gaps): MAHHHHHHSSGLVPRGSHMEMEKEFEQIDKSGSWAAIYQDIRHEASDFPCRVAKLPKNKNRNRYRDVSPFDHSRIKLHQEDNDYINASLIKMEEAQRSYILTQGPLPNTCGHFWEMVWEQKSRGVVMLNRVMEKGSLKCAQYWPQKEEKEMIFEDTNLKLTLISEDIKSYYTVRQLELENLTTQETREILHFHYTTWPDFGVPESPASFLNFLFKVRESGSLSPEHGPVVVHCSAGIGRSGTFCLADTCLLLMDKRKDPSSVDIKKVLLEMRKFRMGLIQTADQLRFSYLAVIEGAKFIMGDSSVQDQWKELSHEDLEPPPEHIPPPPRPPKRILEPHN
Method: The enzymatic assay used to determine activity is a mobility shift assay using a LabChip EZ Reader by Caliper Life Sciences. The enzymatic reaction was carried out in assay buffer (50 mM HEPES pH 7.5, 1 mM EGTA, 10 mM EDTA, 0.01% Tween® 20, and 2 mM DTT). […] The enzyme (at 0.5 nM) was incubated with compound for 10 minutes at room temperature. […] The % inhibition was then used to calculate the IC50 values.

[3] = tested on: B16F10 mouse melanoma cells; assay: B16F10 IFNγ-induced cellular growth inhibition assay; format: cell-based; settings: Mus musculus, B16-F10, 33 μM compound
Procedure, shortened: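 B16F10 cells (500/well, DMEM + 10% FBS) dosed in triplicate at 100 μM to 0.001 μM (0.1% DMSO) with or without 0.5 ng/mL final mouse IFNγ. Confluence imaged every 6 h for 5 days; % growth inhibition calculated versus DMSO/with-IFNγ control once DMSO/no-IFNγ wells exceeded 95% confluence.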

[4] = +0.5 ng/mL IFNγ, relative to DMSO control, read-out: % B16F10 growth inhibition (+0.5 ng/mL IFNγ) @ 33 μM
[5] = no IFNγ, read-out: % B16F10 growth inhibition (no IFNγ) @ 33 μM

Compound	IC50 [1] [nM]	IC50 [2] [nM]	inhibition at 33 µM [3, 4] [%]	inhibition at 33 µM [3, 5] [%]
O=C1CN(c2c(O)cc3ccc(OCCNS(=O)(=O)C4COC4)cc3c2F)S(=O)(=O)N1 [Compound 298, N-(2-{[8-fluoro-6-hydroxy-7-(1,1,4-trioxo-1λ^6,2,5-thiadiazolidin-2-yl)naphthalen-2-yl]oxy}ethyl)oxetane-3-sulfonamide]	< 1	< 1	> 90	< 25
O=C1CN(c2c(O)cc3ccc(C4CCCOC4)cc3c2F)S(=O)(=O)N1 (centres unmarked) [Compound 249, 5-[1-fluoro-3-hydroxy-7-(oxan-3-yl)naphthalen-2-yl]-1λ^6,2,5-thiadiazolidine-1,1,3-trione]	1 to 10	> 100	60 to 90	< 25
O=C1CN(c2c(O)cc3ccc(C4=CCN(S(=O)(=O)C5CCOC5)C4)cc3c2F)S(=O)(=O)N1 (centres unmarked) [Compound 285, 5-{1-fluoro-3-hydroxy-7-[1-(oxolane-3-sulfonyl)-2,5-dihydro-1H-pyrrol-3-yl]naphthalen-2-yl}-1λ^6,2,5-thiadiazolidine-1,1,3-trione]	< 1	1 to 10		
CC(C)CC(=O)Nc1ccc2cc(O)c(N3CC(=O)NS3(=O)=O)c(F)c2c1 [Compound 157, N-[8-fluoro-6-hydroxy-7-(1,1,4-trioxo-1λ^6,2,5-thiadiazolidin-2-yl)naphthalen-2-yl]-3-methylbutanamide]	1 to 10	10 to 100	60 to 90	< 25
O=C1CN(c2c(O)cc3ccc(OCC4(F)CCNC4)cc3c2F)S(=O)(=O)N1 (centres unmarked) [Compound 110, 5-{1-fluoro-7-[(3-fluoropyrrolidin-3-yl)methoxy]-3-hydroxynaphthalen-2-yl}-1λ^6,2,5-thiadiazolidine-1,1,3-trione]	1 to 10	10 to 100	60 to 90	< 25
CCCC(C)S(=O)(=O)N1CC=C(c2ccc3cc(O)c(N4CC(=O)NS4(=O)=O)c(F)c3c2)C1 (centres unmarked) [Compound 294, 5-{1-fluoro-3-hydroxy-7-[1-(pentane-2-sulfonyl)-2,5-dihydro-1H-pyrrol-3-yl]naphthalen-2-yl}-1λ^6,2,5-thiadiazolidine-1,1,3-trione]	< 1	< 1		
O=C1CN(c2c(O)cc3ccc(OC(CO)CCl)cc3c2F)S(=O)(=O)N1 (centres unmarked) [Compound 272, 5-{7-[(1-chloro-3-hydroxypropan-2-yl)oxy]-1-fluoro-3-hydroxynaphthalen-2-yl}-1λ^6,2,5-thiadiazolidine-1,1,3-trione]	1 to 10	10 to 100		
CC(C)S(=O)(=O)N1CCC(c2ccc3cc(O)c(N4CC(=O)NS4(=O)=O)c(F)c3c2)C1 (centres unmarked) [Compound 308, 5-{1-fluoro-3-hydroxy-7-[1-(propane-2-sulfonyl)pyrrolidin-3-yl]naphthalen-2-yl}-1λ^6,2,5-thiadiazolidine-1,1,3-trione]	< 1	1 to 10		
CC(C)(C)CC1CCN(c2ccc3cc(O)c(N4CC(=O)NS4(=O)=O)c(F)c3c2)C1 (centres unmarked) [Compound 220, 5-{7-[3-(2,2-dimethylpropyl)pyrrolidin-1-yl]-1-fluoro-3-hydroxynaphthalen-2-yl}-1λ^6,2,5-thiadiazolidine-1,1,3-trione]	10 to 100	> 100		
O=C1CN(c2c(O)cc3ccc(C4=CCN(S(=O)(=O)CC5COCCO5)C4)cc3c2F)S(=O)(=O)N1 (centres unmarked) [Compound 292, 5-(7-{1-[(1,4-dioxan-2-yl)methanesulfonyl]-2,5-dihydro-1H-pyrrol-3-yl}-1-fluoro-3-hydroxynaphthalen-2-yl)-1λ^6,2,5-thiadiazolidine-1,1,3-trione]	< 1	< 1		
O=C1CN(c2c(O)cc3ccc(C4CCCN4C(=O)C4CC4)cc3c2F)S(=O)(=O)N1 (centres unmarked) [Compound 187, 5-{7-[1-(cyclopropanecarbonyl)pyrrolidin-2-yl]-1-fluoro-3-hydroxynaphthalen-2-yl}-1λ^6,2,5-thiadiazolidine-1,1,3-trione]	1 to 10	10 to 100		
O=C1CN(c2c(O)cc3ccc([C@@H]4CCNC4)cc3c2F)S(=O)(=O)N1 (single isomer, unassigned) [Compound 232]	1 to 10	10 to 100		
CC(COc1ccc2cc(O)c(N3CC(=O)NS3(=O)=O)c(F)c2c1)C1CC1 (centres unmarked) [Compound 171, 5-[7-(2-cyclopropylpropoxy)-1-fluoro-3-hydroxynaphthalen-2-yl]-1λ^6,2,5-thiadiazolidine-1,1,3-trione]	< 1	10 to 100		
CCCS(=O)(=O)N1CC=C(c2ccc3cc(O)c(N4CC(=O)NS4(=O)=O)c(F)c3c2)C1 [Compound 288]	< 1	< 1		
O=C1CN(c2c(O)cc3ccc(C(CO)CCl)cc3c2F)S(=O)(=O)N1 (centres unmarked) [Compound 221, 5-[7-(1-chloro-3-hydroxypropan-2-yl)-1-fluoro-3-hydroxynaphthalen-2-yl]-1λ^6,2,5-thiadiazolidine-1,1,3-trione]	10 to 100	> 100		
O=C1CN(c2c(O)cc3ccc([C@H]4CCNC4)cc3c2F)S(=O)(=O)N1 (single isomer, unassigned) [Compound 233]	1 to 10	10 to 100		
O=C1CN(c2c(O)cc3ccc(C4CCN(CC5CC5)C4)cc3c2F)S(=O)(=O)N1 (centres unmarked) [Compound 222, 5-{7-[1-(cyclopropylmethyl)pyrrolidin-3-yl]-1-fluoro-3-hydroxynaphthalen-2-yl}-1λ^6,2,5-thiadiazolidine-1,1,3-trione]	> 100	10 to 100		
O=C1CN(c2c(O)cc3ccc(C4CCCN4)cc3c2F)S(=O)(=O)N1 (centres unmarked) [Compound 258, 5-[1-fluoro-3-hydroxy-7-(pyrrolidin-2-yl)naphthalen-2-yl]-1λ^6,2,5-thiadiazolidine-1,1,3-trione]	1 to 10	10 to 100		
CC(O)COc1ccc2cc(O)c(N3CC(=O)NS3(=O)=O)c(F)c2c1 (centres unmarked) [Compound 135, 5-[1-fluoro-3-hydroxy-7-(2-hydroxypropoxy)naphthalen-2-yl]-1λ^6,2,5-thiadiazolidine-1,1,3-trione]	1 to 10	10 to 100		
CS(=O)(=O)N1CCC(COc2ccc3cc(O)c(N4CC(=O)NS4(=O)=O)c(F)c3c2)C1 (centres unmarked) [Compound 173, 5-(1-fluoro-3-hydroxy-7-{[1-(methanesulfonyl)pyrrolidin-3-yl]methoxy}naphthalen-2-yl)-1,2,5-thiadiazolidine-1,1,3-trione]	< 1	10 to 100		
O=C1CN(c2c(O)cc3ccc(C4CCCN4S(=O)(=O)C4CC4)cc3c2F)S(=O)(=O)N1 (centres unmarked) [Compound 189, 5-{7-[1-(cyclopropanesulfonyl)pyrrolidin-2-yl]-1-fluoro-3-hydroxynaphthalen-2-yl}-1λ^6,2,5-thiadiazolidine-1,1,3-trione]	1 to 10	10 to 100		
O=C1CN(c2c(O)cc3ccc(CC4CCNC4)cc3c2F)S(=O)(=O)N1 (centres unmarked) [Compound 262, 5-{1-fluoro-3-hydroxy-7-[(pyrrolidin-3-yl)methyl]naphthalen-2-yl}-1λ^6,2,5-thiadiazolidine-1,1,3-trione]	1 to 10	10 to 100		
O=C1CN(c2c(O)cc3ccc(C4=CCN(S(=O)(=O)CC5CCCCO5)C4)cc3c2F)S(=O)(=O)N1 (centres unmarked) [Compound 289, 5-(1-fluoro-3-hydroxy-7-{1-[(oxan-2-yl)methanesulfonyl]-2,5-dihydro-1H-pyrrol-3-yl}naphthalen-2-yl)-1λ^6,2,5-thiadiazolidine-1,1,3-trione]	< 1	< 1		
O=C1CN(c2c(O)cc3ccc(C4CCCN(S(=O)(=O)C5CC5)C4)cc3c2F)S(=O)(=O)N1 (centres unmarked) [Compound 186, 5-{7-[1-(cyclopropanesulfonyl)piperidin-3-yl]-1-fluoro-3-hydroxynaphthalen-2-yl}-1λ^6,2,5-thiadiazolidine-1,1,3-trione]	1 to 10	10 to 100		
